Values joined by “and” are separate entries in the source; they are usually repeats but may differ in a detail not shown here. Equal entries are not always repeated. Where two headings read alike, the source gives them in different places.
Assays:
OVCAR-8 cells = assay: Inhibition of growth of OVCAR-8 cells; type: cell-based, human; details: ovarian tumor cell line 8, 96 h
Protocol: (§1) ; 11 and 15, NCI/ADR-RES and OVCAR-8 cells) to 4.8 (19, OVCAR-8 cells). […] . […] Cells were seeded in 96-well plates.

NCI/ADR-RES cells [1] = assay: Inhibition of growth of NCI/ADR-RES DOX-resistant cells; type: cell-based, human; details: for IC50: DOX-resistant cell line derived from OVCAR-8, 96 h
Protocol: as §1

MCF-7 cells = assay: Inhibition of growth of MCF-7 cells; type: cell-based, human
Protocol: as §1

tubulin [2] = assay: Tubulin assembly (polymerization) assay; type: biochemical; details: at 20 μM
Protocol: The reaction mixtures contained 0.8 M monosodium glutamate (pH 6.6 with HCl in a 2 M stock solution), 10 μM tubulin, 4% (v/v) DMSO, and varying concentrations of compound. […] The extent of the reaction was measured.

hCA XII = target: T1, hCA XII (Homo sapiens, UniProt O43570); assay: Stopped flow CO2 hydrase assay, hCA XII; type: biochemical; details: stopped flow technique, mean from three assays
T1 construct: made in house
T1 sequence (O43570 25-354): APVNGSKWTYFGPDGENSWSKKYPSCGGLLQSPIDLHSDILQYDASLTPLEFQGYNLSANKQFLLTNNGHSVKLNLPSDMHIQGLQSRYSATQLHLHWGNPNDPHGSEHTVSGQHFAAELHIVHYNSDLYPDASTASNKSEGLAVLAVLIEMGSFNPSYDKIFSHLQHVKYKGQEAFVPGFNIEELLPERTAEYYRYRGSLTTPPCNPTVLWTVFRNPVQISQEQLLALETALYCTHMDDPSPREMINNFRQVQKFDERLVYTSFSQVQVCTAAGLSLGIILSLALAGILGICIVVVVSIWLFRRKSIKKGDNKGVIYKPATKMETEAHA

hCA IX = target: T2, hCA IX (Homo sapiens, UniProt Q16790); assay: Stopped flow CO2 hydrase assay, hCA IX; type: biochemical
T2 construct: made in house

tubulin [3] = details: tubulin assembly; read-out: Tubulin IC50 ± SD; cited from earlier work
tubulin [4] = details: cited from earlier work
hCA II = target: T3, hCA II (Homo sapiens, UniProt P00918); assay: Stopped flow CO2 hydrase assay, hCA II; type: biochemical; details: stopped flow technique, mean from three assays
T3 construct: made in house

hCA I = target: T4, hCA I (Homo sapiens, UniProt P00915); assay: Stopped flow CO2 hydrase assay, hCA I; type: biochemical; details: for fold reduction in the inhibition of hCA I: relative to 11 (sulfonamide at para position); for Ki: stopped flow technique, mean from three assays
T4 construct: made in house
T4 sequence (P00915 whole entry): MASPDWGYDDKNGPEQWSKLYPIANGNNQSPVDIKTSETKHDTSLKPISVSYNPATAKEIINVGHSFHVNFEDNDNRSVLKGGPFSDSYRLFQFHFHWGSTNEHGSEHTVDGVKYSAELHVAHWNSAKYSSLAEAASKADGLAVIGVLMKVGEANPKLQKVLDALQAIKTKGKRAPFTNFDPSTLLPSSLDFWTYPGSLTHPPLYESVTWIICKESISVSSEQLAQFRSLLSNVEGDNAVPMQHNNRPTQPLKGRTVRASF

HCT116 cells = assay: Inhibition of growth of HCT116 cells (MTT); details: read-out: IC50 HCT116; human colorectal carcinoma cells; combinations: each compound at its IC50 concentration
Protocol: (§2) In drug combination studies, each compound was used at the corresponding IC50 concentration.
(§3) Cells were grown in Dulbecco’s modified Eagle’s medium (D-MEM) supplemented with 10% fetal bovine serum (FBS) at 37 °C with 5% CO2. In all experiments, 300,000 cells were plated in 9 cm^2 dishes and exposed to test compound dissolved in DMSO (0.1% final concentration) at the indicated concentrations. […] Cells were kept at low passage, returning to the original frozen stocks every 3–4 months.

SW480 cells = assay: Inhibition of growth of SW480 cells (XTT); details: read-out: IC50 SW480; human colorectal carcinoma cells; combinations: each compound at its IC50 concentration
Protocol: as §2, §3

SW620 cells = assay: Inhibition of growth of SW620 cells (XTT); details: read-out: IC50 SW620; human colorectal carcinoma cells; combinations: each compound at its IC50 concentration
Protocol: as §2, §3

NCI/ADR-RES cells [5] = test system: NCI/ADR-RES cells; set-up: method as in PMID 22044164; details: DOX-resistant cell line; cited from earlier work
[6] = human nonmetastatic breast cancer epithelial cells
[7] = stopped flow technique, mean from three assays

Compound	Ki (hCA XII) [nM]	Ki (hCA IX; [7]) [nM]	Ki (hCA II) [nM]	Ki (hCA I) [nM]	also measured
4-(3-(3,4,5-trimethoxybenzoyl)-1H-pyrrol-1-yl)benzenesulfonamide [Compound 11]	11.5				IC50 (OVCAR-8 cells): 1900 ± 70 nM; IC50 (NCI/ADR-RES cells [1]): 1900 nM and 2200 nM; IC50 (MCF-7 cells; [6]): 3900 ± 80 nM; inhibition of tubulin assembly (tubulin [2]): did not inhibit tubulin assembly
4-(3-Benzoyl-1H-indol-1-yl)benzenesulfonamide [Compound 18]	52				Ki (hCA IX): 31.6 nM
4-(3-Benzoyl-1H-pyrrol-1-yl)benzenesulfonamide [Compound 10]	47.1	66			
4-(3-Benzoyl-4-phenyl-1H-pyrrol-1-yl)benzenesulfonamide [Compound 14]	59.4	38.6			
COc1ccc(/C=C\c2cc(OC)c(OC)c(OC)c2)cc1O [CSA4, combretastatin A-4, reference compound]					IC50 (MCF-7 cells; Homo sapiens, MCF7, reference compound in the MCF-7 assay): 15 nM
COc1cc(C(=O)c2ccn(-c3ccccc3)c2)cc(OC)c1OC [Compound 2]					IC50 (tubulin [3]): 1500 nM; inhibition of colchicine binding (tubulin [4]): 81%
COc1cc(C(=O)c2cn(-c3ccccc3)cc2-c2ccccc2)cc(OC)c1OC [Compound 3]					IC50 (tubulin [3]): 1100 nM; inhibition of colchicine binding (tubulin [4]): 66%
COc1cc(C(=O)c2ccn(-c3cccc(S(N)(=O)=O)c3)c2)cc(OC)c1OC [Compound 12, 3-(3-(3,4,5-Trimethoxybenzoyl)-1H-pyrrol-1-yl)benzenesulfonamide]	21.3	34.7	84.2	644	EC50 (NCI/ADR-RES cells [1]; Homo sapiens, NCI/ADR-RES, DOX-resistant cell line): 2100 to 2200 nM; fold reduction in the inhibition of hCA I (hCA I): 6.7 fold
COc1cc(C(=O)c2ccn(-c3ccccc3S(N)(=O)=O)c2)cc(OC)c1OC [Compound 13, 2-(3-(3,4,5-Trimethoxybenzoyl)-1H-pyrrol-1-yl)benzenesulfonamide]	425	229	888	5840	fold reduction in the inhibition of hCA I (hCA I): 61.0 fold
COc1cc(C(=O)c2cn(-c3cccc(S(N)(=O)=O)c3)cc2-c2ccccc2)cc(OC)c1OC [Compound 16, 3-(3-Phenyl-4-(3,4,5-trimethoxybenzoyl)-1H-pyrrol-1-yl)benzenesulfonamide]	28.9	39.1	186	1030	
COc1cc(C(=O)c2cn(-c3ccccc3S(N)(=O)=O)cc2-c2ccccc2)cc(OC)c1OC [Compound 17, 2-(3-Phenyl-4-(3,4,5-trimethoxybenzoyl)-1H-pyrrol-1-yl)benzenesulfonamide]	1000	8860	> 10000	> 10000	
COc1cc(C(=O)c2cn(-c3ccc(S(N)(=O)=O)cc3)c3ccccc23)cc(OC)c1OC [Compound 19, 4-(3-(3,4,5-Trimethoxybenzoyl)-1H-indol-1-yl)benzenesulfonamide]			67.8	446	IC50 (OVCAR-8 cells): 4800 ± 300 nM; IC50 (HCT116 cells): 14900 ± 1300 nM; IC50 (NCI/ADR-RES cells [1]): 2100 ± 200 nM; IC50 (SW480 cells): 37400 ± 1400 nM; Ki (hCA IX): 7.3 nM; IC50 (MCF-7 cells; [6]): 3600 ± 1000 nM; inhibition of tubulin assembly (tubulin [2]): partial inhibition; IC50 (SW620 cells): 45400 ± 1700 nM
COc1cc(C(=O)c2cn(-c3cccc(S(N)(=O)=O)c3)c3ccccc23)cc(OC)c1OC [Compound 20, 3-(3-(3,4,5-Trimethoxybenzoyl)-1H-indol-1-yl)benzenesulfonamide]	58.1	69	229	943	
COc1cc(C(=O)c2cn(-c3ccccc3S(N)(=O)=O)c3ccccc23)cc(OC)c1OC [Compound 21, 2-(3-(3,4,5-Trimethoxybenzoyl)-1H-indol-1-yl)benzenesulfonamide]	1190	7750	> 10000	> 10000	
CCC1=C[C@@H]2CN(C1)Cc1c([nH]c3ccccc13)[C@@](C(=O)OC)(c1cc3c(cc1OC)N(C)[C@H]1[C@@](O)(C(=O)OC)[C@H](OC(C)=O)[C@]4(CC)C=CCN5CC[C@]31[C@@H]54)C2 [vinorelbine]					IC50 (NCI/ADR-RES cells [5]): 5000 ± 1000 nM
